From ChEMBL document CHEMBL1133858, “BMS-196085: a potent and selective full agonist of the human beta(3) adrenergic receptor” (Bioorg Med Chem Lett, 2001)

Columns and labels:
[1] = target: T1, Beta-3 adrenergic receptor (Homo sapiens, UniProt P13945); experiment: Binding affinity to CHO cells expressing the cloned human beta-3 adrenergic receptor in the presence of [125I]iodocyanopindolol; assay type: cell-based
Target sequence in this assay (P13945 whole entry): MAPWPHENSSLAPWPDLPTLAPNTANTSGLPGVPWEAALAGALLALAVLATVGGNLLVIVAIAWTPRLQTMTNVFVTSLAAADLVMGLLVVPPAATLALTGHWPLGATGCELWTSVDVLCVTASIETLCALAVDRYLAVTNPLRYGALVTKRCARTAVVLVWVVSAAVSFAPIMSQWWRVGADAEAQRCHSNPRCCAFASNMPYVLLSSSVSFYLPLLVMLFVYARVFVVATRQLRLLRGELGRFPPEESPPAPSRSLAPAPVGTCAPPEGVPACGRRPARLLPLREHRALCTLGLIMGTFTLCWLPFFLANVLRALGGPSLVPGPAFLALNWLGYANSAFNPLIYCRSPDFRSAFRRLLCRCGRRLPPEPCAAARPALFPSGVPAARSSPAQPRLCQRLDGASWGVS

ADRB2+ADRB3 (+) = experiment: Tested for binding selectivity to beta3 adrenoceptor versus beta2 adrenoceptor
[2] = target: T1, Beta-3 adrenergic receptor; experiment: Agonist activity was assessed by measurement of cAMP accumulation levels in CHO membranes expressing human beta-3 receptor; assay type: functional, cell membranes
Target sequence in this assay (P13945 whole entry, looked up): as the sequence (P13945 whole entry) above

ADRB1+ADRB3 (+) = experiment: Tested for binding selectivity to beta3 adrenoceptor versus beta-1 adrenoceptor
[3] = target: Beta-1 adrenergic receptor (Cavia porcellus) (UniProt B0FL73); experiment: Beta1 receptor intrinsic activity is given as a percent of the maximal increase in the beating rate of an isolated spontaneously beating guinea pig atrium induced by isoproterenol; assay type: functional, tissue-based; details: Cardiac atrium
[4] = Tested for Lowest dose required to produce tachycardia divided by effective dose for lipolysis african green monkey 30 min after iv administration; assay type: functional, Cercopithecidae
[5] = In vivo effective dose for lipolysis in african monkeys after iv administration; assay type: functional; details: Cercopithecidae
[6] = Tested for lowest dose required to produce change in plasma potassium level divided by effective dose for lipolysis african green monkey 30 min after iv administration; assay type: functional, Cercopithecidae
[7] = Dose that produced tachycardia in african green monkeys after iv administration; assay type: functional, Cercopithecidae
Homo sapiens = organism: Homo sapiens; experiment: Transdermal flux across human cadaver skin; assay type: functional
[8] = target: Beta-2 adrenergic receptor (Homo sapiens) (UniProt P07550); experiment: Tested for Intrinsic activity (IA) against adenylate cyclase in CHO cells transfected with human beta-2 adrenoceptor; assay type: functional, cell-based
[9] = target: Beta-1 adrenergic receptor (Homo sapiens) (UniProt P08588); experiment: Tested for Intrinsic activity (IA) against adenylate cyclase in CHO cells transfected with human beta-1 adrenoceptor; assay type: functional, cell-based
[10] = Tested for volume of distribution upon iv administration to african green monkey; assay type: ADME, organism-based; details: cercopithecidae, in vivo
[11] = target: Beta-3 adrenergic receptor (Mus musculus, UniProt P25962); experiment: Tested for binding affinity to murine Beta-3 adrenergic receptor
[12] = Lowest dose required to produce statistically significant hypokalemia divided by ED50 for lipolysis in african green monkeys after 30 min (iv); assay type: functional, Cercopithecidae
[13] = Tested for half life upon iv administration to african green monkey; assay type: ADME, organism-based; details: cercopithecidae, in vivo
[14] = Tested for Clearance upon iv administration to african green monkey; assay type: ADME, organism-based; details: cercopithecidae, in vivo
[15] = Lowest dose required to produce statistically significant tachycardia divided by ED50 for lipolysis in african green monkeys after 30 min (iv); assay type: functional, Cercopithecidae
[16] = Oral systemic bioavailability […] to african green monkey; assay type: ADME, organism-based; details: cercopithecidae, in vivo, read-out: Bioavailabiility
[17] = target: T1, Beta-3 adrenergic receptor; experiment: Human beta-3 receptor agonist activity was assessed by measurement of cAMP accumulation levels in CHO cells expressing human beta-3 receptor; assay type: functional, cell-based
Target sequence in this assay (P13945 whole entry, looked up): as the sequence (P13945 whole entry) above

[18] = Tested for Lowest dose required to produce change in plasma potassium level divided by effective dose for lipolysis african green monkey 30 min after iv administration; assay type: functional, Cercopithecidae

Beta-1 adrenergic receptor (Cavia porcellus), sequence (B0FL73 1-467): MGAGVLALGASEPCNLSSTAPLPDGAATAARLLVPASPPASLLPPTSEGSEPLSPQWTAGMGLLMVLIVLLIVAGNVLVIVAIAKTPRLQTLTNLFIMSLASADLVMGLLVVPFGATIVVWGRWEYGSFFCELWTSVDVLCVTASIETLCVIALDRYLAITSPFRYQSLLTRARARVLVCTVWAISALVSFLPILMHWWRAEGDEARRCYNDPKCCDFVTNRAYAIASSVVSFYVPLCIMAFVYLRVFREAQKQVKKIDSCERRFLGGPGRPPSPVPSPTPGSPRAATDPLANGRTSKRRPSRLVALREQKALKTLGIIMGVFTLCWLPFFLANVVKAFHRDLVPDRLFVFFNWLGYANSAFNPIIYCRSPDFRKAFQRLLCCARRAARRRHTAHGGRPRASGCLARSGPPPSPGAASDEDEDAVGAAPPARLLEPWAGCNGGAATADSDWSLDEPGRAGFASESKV
Beta-1 adrenergic receptor (Homo sapiens), sequence (P08588 whole entry, looked up): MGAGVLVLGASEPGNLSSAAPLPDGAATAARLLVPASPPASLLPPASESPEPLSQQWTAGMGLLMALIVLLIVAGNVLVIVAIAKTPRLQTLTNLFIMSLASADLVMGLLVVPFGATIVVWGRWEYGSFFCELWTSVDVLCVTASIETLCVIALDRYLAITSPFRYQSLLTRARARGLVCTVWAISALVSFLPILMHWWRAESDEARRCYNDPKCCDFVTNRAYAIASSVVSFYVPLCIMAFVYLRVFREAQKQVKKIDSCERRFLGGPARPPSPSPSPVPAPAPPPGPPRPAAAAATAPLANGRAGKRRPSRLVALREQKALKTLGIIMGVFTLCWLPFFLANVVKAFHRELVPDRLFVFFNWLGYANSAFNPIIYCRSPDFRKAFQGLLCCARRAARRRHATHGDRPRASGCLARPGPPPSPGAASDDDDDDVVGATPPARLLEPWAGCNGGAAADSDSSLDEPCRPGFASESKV
Beta-3 adrenergic receptor (Mus musculus, UniProt P25962), sequence (P25962 whole entry): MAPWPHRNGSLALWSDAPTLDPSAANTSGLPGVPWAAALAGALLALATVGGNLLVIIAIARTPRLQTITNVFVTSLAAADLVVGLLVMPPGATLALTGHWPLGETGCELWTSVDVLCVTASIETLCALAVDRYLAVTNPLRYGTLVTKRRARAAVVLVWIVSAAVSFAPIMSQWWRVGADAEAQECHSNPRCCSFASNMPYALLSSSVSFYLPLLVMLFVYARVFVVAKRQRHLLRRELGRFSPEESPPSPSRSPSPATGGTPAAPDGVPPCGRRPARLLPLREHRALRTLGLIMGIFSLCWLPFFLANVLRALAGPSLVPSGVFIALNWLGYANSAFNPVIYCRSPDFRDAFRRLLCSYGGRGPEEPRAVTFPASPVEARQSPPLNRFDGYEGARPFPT
Beta-2 adrenergic receptor (Homo sapiens), sequence (P07550 whole entry, looked up): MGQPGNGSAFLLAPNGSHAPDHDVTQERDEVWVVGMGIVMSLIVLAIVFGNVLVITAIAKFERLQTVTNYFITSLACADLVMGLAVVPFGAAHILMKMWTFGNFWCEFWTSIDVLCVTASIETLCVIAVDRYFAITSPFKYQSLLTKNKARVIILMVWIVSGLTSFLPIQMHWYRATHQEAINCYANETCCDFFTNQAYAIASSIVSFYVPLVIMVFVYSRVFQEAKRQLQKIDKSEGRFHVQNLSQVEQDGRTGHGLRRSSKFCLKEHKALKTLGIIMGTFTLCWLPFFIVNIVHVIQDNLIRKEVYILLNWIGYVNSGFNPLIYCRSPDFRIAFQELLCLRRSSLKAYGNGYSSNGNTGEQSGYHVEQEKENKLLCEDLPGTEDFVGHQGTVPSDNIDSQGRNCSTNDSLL

SMILES | Ki [1] | Selectivity ratio (ADRB2+ADRB3 (+)) | Intrinsic activity [2] | Selectivity ratio (ADRB1+ADRB3 (+)) | further results
CS(=O)(=O)Nc1cc([C@@H](O)CN[C@H](Cc2ccccc2)c2ccc(C(=O)O)cc2)ccc1O | 8600 nM | 6 | 123% | 17 | –
CS(=O)(=O)Nc1cc([C@@H](O)CNC(Cc2ccccc2)c2ccc(OC(F)(F)F)cc2)ccc1O (stereo partly specified) | 210 nM | 2 | – | 25 | –
COc1ccc([C@@H](Cc2ccccc2)NC[C@H](O)c2ccc(O)c(NS(C)(=O)=O)c2)c2ccccc12 | 26 nM | 9 | 85% | 46 | Activity [3]: 22%
COc1ccc([C@@H](Cc2ccccc2)NC[C@H](O)c2ccc(O)c(NS(C)(=O)=O)c2)cn1 | 25 nM | 30 | 101% | 180 | Activity [3]: 70%
C[C@](Cc1ccccc1)(NC[C@H](O)c1ccc(O)c(NS(C)(=O)=O)c1)c1ccc(OC(F)F)cc1 | 9 nM | 14 | – | 12 | –
CS(=O)(=O)Nc1cc(C(O)CNC(Cc2ccccc2)c2ccc3sccc3c2)ccc1O (stereo unspecified) | 230 nM | 2 | 90% | 19 | –
CS(=O)(=O)Nc1cc([C@@H](O)CN[C@H](Cc2ccccc2)c2ccc(C#N)cc2)ccc1O | 210 nM | 4 | 107% | 30 | –
CS(=O)(=O)Nc1cc(C(O)CNC(Cc2ccccc2)c2ccc(S(C)(=O)=O)cc2)ccc1O (stereo unspecified) | 440 nM | 3 | 129% | 53 | –
CS(=O)(=O)Nc1cc([C@@H](O)CN[C@H](Cc2ccccc2)c2ccc(C(=O)NO)cc2)ccc1O | 147 nM | 4 | 106% | 537 | –
CS(=O)(=O)Nc1cc([C@@H](O)CN[C@H](Cc2ccccc2)c2ccc3c(c2)OCO3)ccc1O | 8 nM | 8 | 94% | 52 | Activity [3]: 80%; Margin before onset of tachycardia [4]: 1; ED50 [5]: 0.02 mg/kg; Margin before onset of hypokalemia [6]: 2; Dose [7]: 0.1 mg/kg
CS(=O)(=O)Nc1cc([C@@H](O)CN[C@H](Cc2ccccc2)c2ccc(OC(F)F)c(OC(F)F)c2)ccc1O | 38 nM | 0.4 | – | 37 | –
CS(=O)(=O)Nc1cc([C@@H](O)CN[C@H](Cc2ccccc2)c2ccc(OC(F)F)cc2)ccc1O | 21 nM | 5 | 95% | 36 | Activity (Homo sapiens): 12 ug cm**-2 hr-1; Intrinsic activity [8]: 45%; Activity [3]: 45%; Intrinsic activity [9]: 63%; Vd [10]: 10 L/kg; Ki [11]: 4000 nM; Margin before onset of hypokalemia [12]: 25; ED50 [5]: 0.02 mg/kg; half-life [13]: 7.3 h; clearance [14]: 36 mL/min/kg; Margin before onset of tachycardia [15]: 5; bioavailability [16]: 5%; Dose [7]: 0.1 mg/kg
CS(=O)(=O)Nc1cc([C@@H](O)CNC(Cc2ccccc2)c2ccc(Oc3ccccc3)cc2)ccc1O (stereo partly specified) | 990 nM | 0.5 | – | 4 | –
CN(C)C(=O)c1ccc([C@@H](Cc2ccccc2)NC[C@H](O)c2ccc(O)c(NS(C)(=O)=O)c2)cc1 | 800 nM | 0.4 | 98% | 25 | –
CS(=O)(=O)Nc1cc(C(O)CNC(Cc2ccccc2)c2ccsc2)ccc1O (stereo unspecified) | 129 nM | 0.3 | 110% | 1 | –
CS(=O)(=O)Nc1cc([C@@H](O)CNC(Cc2ccccc2)c2ccc(OCc3ccccc3)cc2)ccc1O (stereo partly specified) | 70 nM | – | – | – | –
COC(=O)c1ccc([C@@H](Cc2ccccc2)NC[C@H](O)c2ccc(O)c(NS(C)(=O)=O)c2)cc1 | 85 nM | – | 98% | – | –
CS(=O)(=O)Nc1cc([C@@H](O)CN[C@H](Cc2ccccc2)c2cccc3ccccc23)ccc1O | 43 nM | 6 | 105% | 33 | Activity [3]: 40%; Margin before onset of tachycardia [4]: 2; ED50 [5]: 0.25 mg/kg; Margin before onset of hypokalemia [6]: 2
CS(=O)(=O)Nc1cc([C@@H](O)CNC(Cc2ccccc2)c2ccc(OCC(F)(F)F)cc2)ccc1O (stereo partly specified) | 84 nM | 1 | – | 83 | –
CS(=O)(=O)Nc1cc(C(O)CNC(Cc2ccccc2)c2nccs2)ccc1O (stereo unspecified) | 2400 nM | 0.6 | 45% | 4 | –
CNC(=O)c1ccc([C@@H](Cc2ccccc2)NC[C@H](O)c2ccc(O)c(NS(C)(=O)=O)c2)cc1 | 120 nM | 3 | 102% | 79 | –
CS(=O)(=O)Nc1cc(C(O)CNC(Cc2ccccc2)c2ccccc2)ccc1O (stereo unspecified) | 360 nM | 3 | – | 15 | Intrinsic activity [17]: 133%
CS(=O)(=O)Nc1cc([C@@H](O)CN[C@H](Cc2ccccc2)c2ccc(C(N)=O)cc2)ccc1O | 70 nM | – | 108% | – | –
CS(=O)(=O)Nc1cc([C@@H](O)CN[C@H](Cc2ccccc2)c2ccc(OC(F)F)c3ccccc23)ccc1O | 2 nM | 9 | 100% | 275 | Activity [3]: 23%; Margin before onset of tachycardia [4]: 2; ED50 [5]: 0.25 mg/kg; Margin before onset of hypokalemia [18]: 2
Cc1cc([C@@H](Cc2ccccc2)NC[C@H](O)c2ccc(O)c(NS(C)(=O)=O)c2)ccc1OC(F)F | 69 nM | – | – | – | –
CS(=O)(=O)Nc1cc([C@@H](O)CN[C@H](Cc2ccccc2)c2ccc(CC(N)=O)cc2)ccc1O | 74 nM | 2 | 106% | 17 | –
CS(=O)(=O)Nc1cc(C(O)CNC(Cc2ccccc2)c2ccc(F)cc2)ccc1O (stereo unspecified) | 836 nM | – | 100% | – | –
COc1ccc([C@@H](Cc2ccccc2)NC[C@H](O)c2ccc(O)c(NS(C)(=O)=O)c2)c(OC)n1 | 15 nM | – | 94% | – | Activity [3]: 60%
CS(=O)(=O)Nc1cc(C(O)CNC(Cc2ccccc2)c2ccncc2)ccc1O (stereo unspecified) | 700 nM | 8 | 129% | 30 | –
